Assay results reported in paper PMC6911004, “Fragment-based screening identifies molecules targeting the substrate-binding ankyrin repeat domains of tankyrase” (Scientific Reports, 2019).
pIC50: −log10 of the molar value. Values belong to the compound of their own block, whether it stands above or below them. Where a SMILES comes first, the peptide text is derived from it. [ ]: non-standard residue; d: D form.

Key:
Format in all cases: binding
TNKS2 ARC4 [1] = target: T1, TNKS2 ARC4 (Homo sapiens, UniProt Q9H2K2); experiment: Fluorescence polarisation (FP) competition assay with Cy5-labelled TBM peptide probe; conditions: for FP competition, result in words: peptide titrated up to 1 mM; for pIC50: 5 nM Cy5-RSPPDGQS probe, 5 µM TNKS2 ARC4
T1 construct: The cell was filled with TNKS2 ARC4 (488–649); His6-GST; made in house; host or cells: E. coli
T1 sequence (Q9H2K2 488-649): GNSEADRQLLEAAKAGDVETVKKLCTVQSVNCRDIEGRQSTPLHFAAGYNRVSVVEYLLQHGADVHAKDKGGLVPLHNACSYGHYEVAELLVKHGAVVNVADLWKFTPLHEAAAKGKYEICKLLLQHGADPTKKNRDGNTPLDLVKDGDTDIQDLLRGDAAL
Text: Given the anticipated impairment of cell permeability by the N-terminal TBM arginine, we investigated whether the guanidine group could be substituted. To prioritise synthesis efforts, we followed an in-silico docking approach, exploring the importance of the positive charge and hydrogen bonding interactions, linker lengths/flexibility and side chain geometry (see Supplementary Materials and Methods for details). From commercially available side chain alternatives, we identified five potential candidates for R replacements: 1H-imidazole-5-pentanoic acid, 1H-imidazole-1-pentanoic acid, 7-aminoheptanoic acid, D-arginine and L-citrulline (Supplementary Fig. 1). We next synthesised 3BP2 TBM octapeptides, incorporating the five arginine substituents at position 1, followed by fluorescence polarisation (FP) assays to assess competition of the peptides with a Cy5-labelled TBM peptide probe (Supplementary Fig. 1). We used a 16-mer TBM peptide (LPHLQRSPPDGQSFRSW, W introduced to measure A280) derived from the model substrate 3BP2, a signalling adapter protein[4], as a positive control for a competitor, and a corresponding non-binding TBM peptide bearing a glycine-to-arginine substitution at position 6[4] as a negative control. […]
Fluorescence polarisation assay
Unlabelled arginine substituent peptides were titrated up to 1 mM in the presence of 5 nM of a labelled peptide probe (Cy5-RSPPDGQS, JPT Peptide Technologies) and 5 µM TNKS2 ARC4. 3BP2 16-mer peptide was used as a positive control, and the same peptide with the glycine at position 6 mutated to arginine (G6R) was used as a negative control. Plus F ProxiPlates (PerkinElmer) were used with a 2103 Envision Multilabel plate reader (PerkinElmer), fitted with 620 nm (excitation) and 688 nm (emission) filters. Filter bandwidths were 10 nm. A Nanodrop 2000 was used for measuring protein and probe concentrations by UV absorption. TNKS2 ARC4 protein was thawed from -80 ° C, and centrifuged at 13,000 […]
Two independent experiments were performed in technical duplicate. A 2´ stock solution containing TNKS2 ARC4 protein (10 µM) and fluorescently tagged probe (10 nM) in assay buffer (25 mM HEPES-NaOH pH 7.5, 100 mM NaCl, 1 mM TCEP, 0.01% CHAPS) was prepared. A 2-fold dilution series of untagged peptide in assay buffer was made (0 – 2 mM).
Protein and peptide stock solutions were mixed 1:1. Blank samples contained assay buffer only. The plate was sealed, centrifuged for 1 min at 1000 ´ g, and then incubated in the dark for 30 min before reading. Readings were taken with 50 flashes per well, and measured in millipolarisation (mP) units. Data were exported to Microsoft Excel, and analysed in GraphPad Prism 6.0. The means of technical duplicate values were calculated for both experiments, and FP values were plotted against unlabelled peptide concentration. Curves were normalised using the overall mean maximum and minimum FP values of the control 3BP2 TBM peptide. Curves were fitted using a non-linear regression, log(inhibitor) vs. response – variable slope (four parameters) model.
Multiple sequence alignments and amino acid identity mapping
Sequences of tankyrase ARCs were aligned using ClustalX (version 2.0) 4. […]
Supplementary Figure 1. Binding of TBM peptides containing arginine substituents to TNKS2 ARC4, measured in a fluorescence polarisation (FP) competition assay. Data points are means of technical duplicates from two independent experiments. […]

TNKS2 ARC5 [2] = target: T2, TNKS2 ARC5 (Homo sapiens, UniProt Q9H2K2); experiment: WaterLOGSY NMR assay
T2 construct: followed by TNKS2 ARC5 (1 μL, 100 μM stock); His6-GST; made in house; host or cells: E. coli
Text: (§1) 39 hits from the DSF screen were suitable for follow-up by ligand-observed NMR methods. We re-purchased fragments and performed T2 relaxation-edited (CPMG-edited) and waterLOGSY experiments for each fragment with TNKS2 ARC5. We explored saturation transfer difference (STD) NMR, also using TNKS2 ARC5, but the assay was not sensitive enough to produce a reliable binding signal, likely due to the relatively small size of a single ARC protein (data not shown). High ligand concentrations were required to achieve sufficient signal, which in turn could lead to false-positive hits due to non-specific binding.
Using the relaxation-edited assay, we tested each fragment in three independent measurements (Fig. 2C), unless we obtained two negative results (non-binding) in the first two experiments. […] As a negative NOE for the compound-only sample could indicate aggregation, we flagged these compounds as potentially problematic. We identified 14 fragments that bound to TNKS2 ARC5 by both relaxation-edited and waterLOGSY methods (0.78% hit rate). […]
Fragments were dispensed in duplicate into a 384-well plate (250 nL, 100 mM stock in DMSO). […] Solutions were transferred to 1.7 mm NMR tubes using a Gilson liquid handling system. ^1H NMR spectra were recorded, with the DMSO signal dampened. […]

TNKS2 ARC4 [3] = target: T1, TNKS2 ARC4; experiment: T2 relaxation-edited ligand-observed NMR assay; conditions: for binding to TNKS2 ARC4 by ligand-observed NMR, in words: DSF hit validation
Description: We next sought close structural analogues of hit fragments 3 and 5 to gain early insights into structure-activity relationships (SAR) and binding modes of hit fragments. We initially tested the analogues using both relaxation-edited and waterLOGSY NMR assays against TNKS2 ARC4 (Table 1), followed by protein-observed NMR if binding was detected in both ligand-observed NMR experiments.
(§2) Fragments were dispensed in duplicate into a 384-well plate (250 nL, 100 mM stock in DMSO). Wells were backfilled with DMSO (2.25 μL). Tankyrase ARC protein (47.5 μL in 25 mM HEPES, pH 7.5, 100 mM NaCl, 2 mM TCEP, 10% D2O; 20 μM final protein concentration in the assay) was added to the ‘protein’ samples; buffer only (47.5 μL) was added to the ‘compound-only’ samples. Solutions were transferred to 1.7 mm NMR tubes using a Gilson liquid handling system. ^1H NMR spectra were recorded, with the DMSO and water signals dampened. A relaxation spin filter was applied at 400 ms[65]. Data were processed using Bruker Topspin 3.14. Lines were broadened with LB = 3.0, and the baseline was corrected between 6.0–10.0 ppm. The average integral for all peaks between 6.0–10.0 ppm was calculated, and the difference between compound-only and compound-plus-protein samples was compared. A reduction in signal integrals of ≥15% was classified as a hit. For competitive experiments, 3BP2 16-mer peptide (100 μM) was added, and the spectra were recorded and processed as above. The variability in signal reduction in the relaxation-edited experiment was previously determined as approximately ± 10% (Liu et al., unpublished observations).

TNKS2 ARC5 [4] = target: T2, TNKS2 ARC5; experiment: T2 relaxation-edited ligand-observed NMR assay; conditions: DSF hit validation; for binding to TNKS2 ARC5 by ligand-observed NMR, in words: relaxation-edited and waterLOGSY; for competition with the 3BP2 TBM peptide by relaxation-edited NMR: ARC used for competition not given
Text: as §1
Using the relaxation-edited assay, we tested each fragment in three independent measurements (Fig. 2C), unless we obtained two negative results (non-binding) in the first two experiments. […] As a negative NOE for the compound-only sample could indicate aggregation, we flagged these compounds as potentially problematic. We identified 14 fragments that bound to TNKS2 ARC5 by both relaxation-edited and waterLOGSY methods (0.78% hit rate). We next tested whether binding of these fragments occurred competitively with the 3BP2 TBM peptide, and also if they bound to TNKS2 ARC4, as competition with peptide binders at various different ARCs will be a prerequisite for an efficient substrate binding antagonist. Three fragments (1, 2, 3) bound to both TNKS2 ARC4 and ARC5 and were competitive with the TBM peptide (0.16% hit rate) (Fig. 2E). Three further fragments also bound to both ARCs, but were not TBM competitive by NMR.
as §2

Compound: 7-aminoheptanoic acid
FP competition, result in words (TNKS2 ARC4 [1]): poor competition

Compound: N=C(N)NCCC[C@H](N)C(=O)N[C@@H](CO)C(=O)N1CCC[C@H]1C(=O)N1CCC[C@H]1C(=O)N[C@@H](CC(=O)O)C(=O)NCC(=O)N[C@@H](CCC(N)=O)C(=O)N[C@@H](CO)C(=O)O [8-mer RSPPDGQS TBM peptide, RSPPDGQS, reference compound] (H-RSPPDGQS-OH)
pIC50 (TNKS2 ARC4 [1]): 4.47

Compound: N=C(N)NCCC[C@@H](N)C(=O)N[C@@H](CO)C(=O)N1CCC[C@H]1C(=O)N1CCC[C@H]1C(=O)N[C@@H](CC(=O)O)C(=O)NCC(=O)N[C@@H](CCC(N)=O)C(=O)N[C@@H](CO)C(=O)O [D-arginine] (H-[dR]SPPDGQS-OH)
pIC50 (TNKS2 ARC4 [1]): 3.76

Compound: O=S(=O)(Nc1cccc(O)c1)c1ccc(Cl)cc1 [compound 1]
waterLOGSY (TNKS2 ARC5 [2]): negative NOE signal
binding to TNKS2 ARC4 by ligand-observed NMR, in words (TNKS2 ARC4 [3]): bound
binding to TNKS2 ARC5 by ligand-observed NMR, in words (TNKS2 ARC5 [4]): bound
competition with the 3BP2 TBM peptide by relaxation-edited NMR (TNKS2 ARC5 [4]): competitive

Now from value to compound:

binding to TNKS2 ARC4 by ligand-observed NMR, in words (TNKS2 ARC4 [3]): bound
binding to TNKS2 ARC5 by ligand-observed NMR, in words (TNKS2 ARC5 [4]): bound
competition with the 3BP2 TBM peptide by relaxation-edited NMR (TNKS2 ARC5 [4]): competitive
Compound: COc1ccc2c(OC(C)=O)coc2c1 [compound 2]

T2 relaxation-edited: competition with 3BP2 TBM peptide (TNKS2 ARC4 [3]; 3BP2 16-mer peptide 100 μM): competitive
Compound: NC(=O)Cc1coc2ccc3ccccc3c12 [compound 4]

FP competition, result in words (TNKS2 ARC4 [1]): poor competition
Compound: citrulline
